Data taken from the METLIN SMRT retention time set (Domingo-Almenara et al. 2019).

Assay: gradient 5% acetonitrile 3 min, to 50% in 2 min, to 85% in 15 min, held 3 min, 100 µL/min
Conditions: column: Zorbax Extend-C18 2.1 x 50 mm; eluents: water / acetonitrile, 0.1% formic acid
How it was run: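 Values are retention times taken from adduct peaks that software picked and an analyst inspected. The pure standards were run as mixtures of ~100 molecules on HPLC linked to a quadrupole time-of-flight mass spectrometer, in positive and negative ionization mode. A Zorbax Extend-C18 column (2.1 × 50 mm, 1.8 μm) was used at 100 μL/min with water and acetonitrile, each including 0.1% formic acid.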

Structure (SMILES)	RP-LC retention time [s]
O=C(CCCN1C(=O)C2C3C=CC(C3)C2C1=O)N1CCN(c2ccc(F)cc2)CC1 (stereo not given)	800
O=S(=O)(NCCc1c[nH]c2ncccc12)c1ccc(Br)s1	673
O=C(C1=CN(c2ccc(F)cc2)c2ccccc2S1(=O)=O)N1CCOCC1	741
CCC(=O)N1N=C(c2cccs2)CC1c1cccs1 (stereo not given)	880
COc1cccc(S(=O)(=O)N2CC(F)(F)C[C@H]2CN2CCc3ccccc3C2)c1	807
COCC(=O)N1CCC(Oc2nccnc2N2CCOCC2)C1 (stereo not given)	584
Cc1nc(-c2cccnc2)nc2c1CCC(=O)N2CC1CCCCC1	963
Cn1cnc2c(C(=O)N3CCN(c4ncccn4)CC3)nn(-c3ccc(Cl)cc3)c2c1=O	766
Cc1cccc2nnc(N3CCCN(C(=O)c4ccccc4Cl)CC3)n12	600
Cc1csc(NC(=O)CSc2nn3c(=O)c(C)nnc3s2)n1	613
CCc1nc2cc3c(cc2n1CC(=O)N1CCOCC1)OCCO3	567
CC(C)c1noc(C2(NC(=O)c3ccccc3F)CCCCC2)n1	1020
COc1ccc2c(c1)C1(CCN(C(=O)c3cccc(Br)c3)C1)C(=O)N2C (stereo not given)	845
CCC(C)NC(=O)c1cn(C)nc1S(=O)(=O)N1CCN(c2cc(Cl)ccc2C)CC1 (stereo not given)	1150
CCCC(NC(=O)Cc1cccs1)C(=O)Nc1nc2ccccc2[nH]1 (stereo not given)	692
CN(C)C(=O)c1ccc2c(c1)N(CC(=O)Nc1ccccn1)C(=O)C1CCCCN21 (stereo not given)	680
CC1(C)CCCC2(C)C(OCCO)=CC(=O)C=C12 (stereo not given)	794
Cc1cnc(-c2ccncc2)n1CC1CN(S(=O)(=O)C(C)C)C1	573
CCCNC(=O)N1CCCC(CCc2nnc(-c3cnccn3)o2)C1 (stereo not given)	647

Structure (SMILES)	RP-LC retention time [s]
COC(=O)c1cc(S(=O)(=O)N2CCCC2C(=O)Nc2nc3ccc(OC)cc3s2)cn1C (stereo not given)	893
COCCCNC(=O)Cc1cn(C)c2ncccc12	576
CC1CCN(S(=O)(=O)c2ccc3nn(CC(=O)OC(C)(C)C)c(=O)n3c2)CC1	999
Nc1nc(F)nc2c1ncn2[C@@H]1O[C@H](CO)[C@@H](O)[C@@H]1O	573
CCOc1ccccc1NC(=O)Cn1nc(N2CCSCC2)c2ccccc2c1=O	929
CCOC(=O)C1CCN(c2cc3c(cc2NC(=O)CC(C)C)n(C)c(=O)c(=O)n3C)CC1	822
CCOC(=O)C1CCc2sc(NC(=O)CCn3cnc4ccccc4c3=O)nc21 (stereo not given)	690
O=C(NCc1csc(C2CCCN(C(=O)c3ccc(F)cc3F)C2)n1)C1CCC1 (stereo not given)	699
CCCc1noc(-c2cccnc2N2CCCN(Cc3ccccc3C)CC2)n1	740
CCC(C)NC(=O)c1ccc(NC(=O)C2CC2)cc1N1CCCCCC1 (stereo not given)	738
CCC(=O)N1CCc2sc(C(=O)NCc3ccc(CC)cc3)cc2C1	824
Cc1nnc(C2CC3(CCN(Cc4ccccc4)CC3)CN2CCc2ccccc2)o1 (stereo not given)	638
COc1nccnc1NC1CCN(C(=O)c2ccnn2C)CC1	608
CC(C)c1noc(-c2cccnc2N2CCCN(Cc3ccc(F)cc3)CC2)n1	712
CN1CCN(C(=O)c2noc3c2CC(C(C)(C)C)CC3)CC1 (stereo not given)	582
CCC(C)NC(=O)c1n[nH]c2c1CCCCCC2 (stereo not given)	850
O=C(NCc1cccs1)C1CCN(c2cnc(N3CCCCCC3)nc2)CC1	732
O=C(NCCOCCOCCNC(=O)Nc1ccccc1)Nc1ccccc1	679

Further lines, results first:

RP-LC retention time [s]	Structure (SMILES)
968	COc1ccccc1-c1noc(C2CCCN2C(=O)c2cc(F)ccc2F)n1 (stereo not given)
671	CC(C)n1c(CCNC(=O)c2ccc(F)cc2F)nc2cccnc21
1110	COc1cccc(/C=C/c2nc(-c3ccc4oc(C)nc4c3)no2)c1
1190	Cc1ccc(-c2csc(-n3nc(C)c(CC(=O)Nc4c(C)cccc4C)c3C)n2)cc1
1050	Cc1cc2nn(CC(=O)Nc3ccc(Cl)cc3)c(=O)n2c(Nc2ccccc2)n1
935	CCOc1ccc(NC(=O)c2cnc(-c3ccc(F)cc3)nc2-c2ccncc2)cc1
1360	CC(C)c1ccc(S(=O)(=O)N2CCCC2c2nc(-c3ccc(Cl)cc3)no2)cc1 (stereo not given)
606	CN1CCC(NC(=O)c2ccc(-c3nnc4ccc(NC(=O)C5CCC5)cn34)cc2)CC1
588	Fc1ccc2nc(Nc3nc(-c4ccncc4)cs3)sc2c1
990	COc1ccc(-c2nnc(-c3ccc(OC)c(S(=O)(=O)N4CCC(C)CC4)c3)o2)cc1OC
1020	CCc1cccc(C)c1NC(=O)C1CCCN(S(=O)(=O)c2ccc(OC)c(Cl)c2)C1 (stereo not given)
1100	CC1CCCCN1S(=O)(=O)c1ccc2nc(N3CCN(c4ccc(F)cc4)CC3)ccc2c1 (stereo not given)
808	Cc1nnc(-c2ccc3ccn(CC(=O)Nc4cccc(F)c4)c3c2)o1
854	Cn1c(=O)sc2cc(S(=O)(=O)N3CCC(C(=O)Nc4ccc(F)cc4)CC3)ccc21
1050	O=c1c2sccc2n(Cc2nc(-c3cccc(Br)c3)no2)c(=O)n1-c1ccccc1
827	Cc1nnc(-c2cn(CC(=O)NCCCc3ccccc3)c3ccccc23)o1
925	COc1cccc(CNC(=O)Cc2csc3nc(-c4cccc(Br)c4)cn23)c1
812	COc1cccc(NC(=O)Cn2nc3c(Oc4ccc(F)cc4)nccn3c2=O)c1
756	CCC(=O)N1CCc2cc(N3CC(C(=O)NCc4ccc(C)cc4)CC3=O)ccc21 (stereo not given)
741	Cc1ccc(NS(=O)(=O)c2cc(-c3[nH]ncc3C(=O)N3CCCC3)oc2C)cc1F
1110	COc1ccc(S(=O)(=O)N2CCC(c3cnn(-c4ccc(C)cc4)c3)CC2)cc1
696	Cc1ccc(S(=O)(=O)Nc2cc(-c3cn4ccc(C)cc4n3)ccc2C)cc1
825	O=C(NC1CCCN(c2cc(-c3ccc(Cl)cc3)[nH]n2)C1)c1ccc2[nH]ccc2c1 (stereo not given)
712	O=C(Cn1nc(-c2ccccc2)c2cc(Cl)ccc21)NCc1cccnc1
1070	CCCCN1C(=O)C(C)(C(=O)Nc2ccc(F)c(F)c2)Oc2cccnc21 (stereo not given)
1030	O=C(Nc1nc(-c2ccccc2)cs1)Oc1ccccc1
1400	CC(C)(C)c1ccc(-c2nc(-c3ccc(S(=O)(=O)N4CCOCC4)cc3)no2)cc1

RP-LC retention time [s]	Structure (SMILES)
1000	COc1ccc(CN2C=C(C(=O)OCc3noc(-c4ccco4)n3)C(C)=NS2(=O)=O)cc1
682	Cc1ccc(CNc2cc(-n3ccnc3)ncn2)cc1C
673	Cc1ccc(S(=O)(=O)Nc2cc(C(=O)O)ccc2N2CCN(c3ccccn3)CC2)cc1
1010	CCOC(=O)c1cc(S(=O)(=O)N2CCCC2C(=O)Nc2cccc(Br)c2)cn1C (stereo not given)
846	CCc1nnc(-c2cc(C)n(CC(=O)Nc3cccc(SC)c3)c2C)o1
700	O=S(=O)(Nc1cccc(Cl)c1)c1ccc2nncn2c1
690	Cc1ccsc1CN1CC(Oc2ccc(-c3noc(C4CCOCC4)n3)cc2)C1
689	COc1ccc2c(=O)oc3c(OC)cc(CCN(C)C)c4c(=O)oc1c2c34
719	CCC(=O)Nc1nc(-c2ccc3c(c2)NC(=O)CO3)c(C)s1
1170	CCOc1nc2ccccc2nc1N1CCCC(C(=O)NCc2cccc(C)c2)C1 (stereo not given)
700	NC(=O)C1CCN(C(=O)c2ccc(CN3C(=O)CCn4nc(-c5cccc(Cl)c5)cc43)cc2)CC1
636	Cc1cc(N2CCN(C)CC2)nc2ccc(NC(=S)NCC3(c4ccccc4)CCCC3)cc12
726	COc1ccccc1Cn1c(COc2ccccc2OC)nc2ccccc21
812	Cc1ccc(NC(=O)C2CCN(S(=O)(=O)c3ccc4c(c3)NC(=O)C(C)O4)CC2)c(Cl)c1 (stereo not given)
868	O=C(Cn1ccn2nc(-c3ccccc3)c(CO)c2c1=O)Nc1cc(F)ccc1Cl
650	CCCC(=O)Nc1cc(-c2nc3ccc(C)cc3[nH]2)ccc1C
570	CC(=O)NCC(=O)N1CCCn2cc(-c3ccccc3)nc21
680	COCc1nc2cccnc2n1C1CCN(C(=O)Nc2ccccc2)CC1
660	COCCNC(=O)N1CCCn2nc(-c3ccc(OC)cc3)cc2C1
807	COc1ccc(-c2cc3n(n2)CCCN(C(=O)c2cccn2C)C3)cc1
664	CNc1nc(Nc2ccccc2C)nc2ccccc12
1130	CCc1nc2cc(-c3noc(CCc4ccc(OC)cc4)n3)ccc2o1
847	CN1C(=O)c2ccccc2Oc2ccc(C(=O)NCc3cccs3)cc21
807	CN(C)[C@@H](CCOc1cccc2ccccc12)c1ccccc1
742	COc1ccc(-c2nc3ccc(Br)cn3c2Nc2ccc(C)cc2)cc1O
909	COc1ccc(Cl)cc1S(=O)(=O)N1CCC(C(=O)NCCc2ccccc2)CC1
